The values that follow are results of earlier work, collected in patent US20120190646A1, “Compositions Comprising Thalidomide and Artemisinin for the Treatment of Cancer” (priority 2009, published 2012).

SMILES strings stand for the structures.

The conditions of this series: multiple myeloma patients; thalidomide administered without prophylaxis; 'as high as'.

With `O=C1CCC(N2C(=O)c3ccccc3C2=O)C(=O)N1` (racemic) [thalidomide, 2-(2,6-dioxo-3-piperidinyl)-1H-isoindole-1,3(2H)-dione], the VTE rates is on record as at most 26%.
